# Measurements: US7138361B2, “Herbicidal heterocycles” (E. I. du Pont de Nemours and Company, priority 2000, dated 2006)
# Key:
# Type in all cases: in vivo
# rice (Oryza saliva) = assay: Test C flooded paddy test; details: for Rice plant response rating: Flooded Paddy, scale 0 to 100, 0 no effect, 100 complete control; for Plant response rating, Rice: flooded paddy test, scale 0 to 100 (0 no effect, 100 complete control)
# In short: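 Visual ratings (0 = no effect, 100 = complete control) were made 12–14 days after treatment, relative to greenhouse controls. Plants in the flooded paddy test were rice, smallflower flatsedge, duck salad and barnyardgrass, treated at the 2-leaf stage.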
# Sunflower [1] = assay: Test C preemergence; details: visual evaluation after 12 to 14 days
# Sunflower [2] = assay: Test C preemergence; details: scale 0 to 100
SMILES,Rice plant response rating (rice (Oryza saliva); Rate 250 g/ha),Rice plant response rating (rice (Oryza saliva); Rate 500 g/ha),"Plant response rating, Rice (rice (Oryza saliva); Rate 62 g/ha)","Plant response rating, Rice (rice (Oryza saliva); Rate 125 g/ha)","Plant response rating (0 to 100), Sunflower (Sunflower [1]; Rate 500 g/ha)","Plant response rating, Sunflower (Sunflower [2]; Rate 62 g/ha)","Plant response rating, Sunflower (Sunflower [2]; Rate 31 g/ha)","Plant response rating (0 to 100), Sunflower (Sunflower [1]; Rate 250 g/ha)"
CSc1cccc(N2CCC(n3ccc(C(C)(C)C)n3)C2=O)c1 (stereo not shown) [Compound 86],0,20,0,0,20,0,–,–
CC(C)Oc1cccc(N2CCC(n3ccc(C(C)(C)C)n3)C2=O)c1 (stereo not shown) [Compound 70],60,90,20,–,60,–,0,–
CCOc1cccc(N2CCC(n3ccc(C(C)C)n3)C2=O)c1 (stereo not shown) [Compound 128],30,70,0,30,100,20,–,–
CCCC(C)c1ccn(C2CCN(c3cccc(OC)c3)C2=O)n1 (stereo not shown) [Compound 99],50,80,0,50,0,0,–,–
CCCC(C)c1ccn(C2SCN(c3cccc(C(F)(F)F)c3)C2=O)n1 (stereo not shown) [Compound 92],30,30,0,0,55,0,–,–
CC(C)(C)c1ccn(C2CCN(c3cccc(OC(F)(F)F)c3)C2=O)n1 (stereo not shown) [Compound 49],30,90,20,–,–,–,0,30
COc1cccc(N2CCC(n3ccc(C(C)(C)C)n3)C2=O)c1 (stereo not shown) [Compound 87],20,80,0,20,30,20,–,–
CCC(CC)c1ccn(C2CCN(c3cccc(OC(C)C)c3)C2=O)n1 (stereo not shown) [Compound 84],30,90,0,0,30,0,–,–
